Tested on: PC12^nnr5 cells
Experiment: Uptake of [125I]NGF into PC12nnr5 cells
Type: cell-based, rat
Settings: 20 pM or 0.2 nM [125I]NGF; saturating R3
Experimental: PC12 cells were removed from culture dishes with CMF, washed, and incubated at a concentration of 10^6 per ml in Hepes-Krebs-Ringer (HKR) buffer buffer with 1 mg·ml^−1 BSA for 90 minutes at 37° C. in the presence of 40 pM [^125I]NGF in the absence and presence of excess unlabeled NGF, and in the absence and presence of R3 peptide. Aliquots of 100 μl were removed in replicates and mircocentrifuged at 10,000×g for 1 minute. Supernatants were removed, tips were cut from the microcentrifuge tube and counted in a gamma counter. Specific binding was defined as the difference between binding of the ligand in the absence and presence of unlabeled NGF, and fractional specific binding in the absence and presence of R3 peptide was compared. Studies of [^125I]NGF uptake into PC12 and PC12^nnr5 cells were carried out in the absence and presence of 10 μM R3 peptide and following a 24-hour exposure of PC12 cultures to 10 μM R3 peptide. Cells were eposed to 20 pM or 0.2 nM [^125I]NGF for periods of time up to 240 minutes (steady state) at 37° C. The cells were then briefly acid-washed as described by Bernd and Greene (1984), and aliquots were prepared for gamma counting as described. NGF was radioiodinated as described in Sutter et al. (1979b).

LDALLAALRRIQR [R3]
Rates of [125I]NGF uptake, in words: not influenced

Reference: patent US6417159B1 (Queen's University at Kingston, priority 1996, dated 2002)
